From article PMC3467217, “A Potent Class of GPR40 Full Agonists Engages the EnteroInsular Axis to Promote Glucose Control in Rodents” (PLoS ONE, 2012)

Tests used:
[1] = Unbound plasma drug concentration in HF/STZ mice; format: in vivo; conditions: C57BL/6j, mouse, 100 mg/kg oral, 1-hour post drug administration, by MS, read-out: free drug level in plasma
[2] = molecular target: T1, GPR120 (Homo sapiens, UniProt Q5NUL3); assay: GPR120 aequorin assay; format: cell-based; conditions: weak activity
T1 construct: expressed in transfected cells
Text: (§1) (A) GPR41 (FFAR3) aequorin assay. GPR41 was force coupled to the calcium signaling pathway by co-transfecting the cells with Gqmyri5. (B) GPR43 (FFAR2) aequorin assay. The short chain fatty acid propionate acts as a natural agonist ligand for GPR41 and GPR43. (C) GPR120 aequorin assay. The unsaturated fatty acids α-LNN and DHA act as natural agonist ligands for GPR120. (D) PPAR-gamma luciferase assay using the thiazolidinedione rosiglitazone as a positive control. […] (TIF) Click here for additional data file.

[3] = test system: wild type and GPR40 knockout mice; assay: OGTT and GLP-1 secretion in wild type and GPR40 null mice; format: in vivo, mouse; conditions: wild type mice
Method: (§2) All procedures on animals were approved by the Amgen San Francisco Institutional Animal Care and Use Committee (approved protocols #11–04 and #2007–00106). The Amgen San Francisco vivarium is an AAALAC accredited facility. Animals were housed under a 12-h light, 12-h dark cycle (lights-on 0600 h and lights-off 1800 h) and were allowed ad libidum access to chow and water. The HF/STZ mice were established as previously described. Briefly, C57BL/6j mice (Jackson labs) at 4 weeks of age were fed a high-fat diet (BioServ S1850, 35% fat) for 3-weeks and then injected with 95 mg/kg streptozotocin (Sigma) ip to induce beta cell dysfunction. The animals continued on the same high fat diet for 3–6 additional weeks. Animals were then randomized into treatment groups based on fasting blood glucose and insulin measures. NONcNZO10/LtJ (RCS10) male mice (Jackson labs) were used at 12-weeks of age and randomized for treatment based on fasting glucose levels. For OGTT experiments, drugs were formulated in 1% HPMC, 10% HPbCD, 1% Tween-80 and dosed via oral gavage. Glucose was administered at 2 g/kg 1-hour post drug dose by oral gavage.
(§3) For all glucose tolerance tests, glucose and insulin measurements were taken from tail vein samples at various time-points. Blood glucose values were measured on an Accu-Chek glucometer (Roche Diagnostics), while insulin levels were determined using an ELISA (Alpco).

[4] = molecular target: mouse GPR40 (Mus musculus, UniProt Q76JU9); assay: Mouse GPR40 inositol phosphate accumulation assay; format: cell-based
Method: (§4) GPR40 aequorin, plasmid titration, and inositol phosphate assays were performed as described. For aequorin assays, in addition to transient transfection of GPR40 into CHO cells, a CHO cell line stably expressing both GPR40 and aequorin was generated. GLUTag cells were obtained under a license from Dr. Daniel Drucker, University of Toronto. Competition binding experiments were performed using membranes prepared from A9_GPR40 cells. […] Competition binding assays were carried out in 20 mM Hepes pH 7.5, 5 mM MgCl2, 100 mM NaCl and 0.1% (w/v) free fatty acid BSA and bound radioligand was collected on 96-well GF/C filter plates.

[5] = molecular target: T2, GPR40 (Homo sapiens, UniProt O14842); assay: Inositol phosphate accumulation assay in A9 cells stably expressing GPR40 (A9_GPR40); format: cell-based; conditions: inositol phosphate assay
T2 construct: expressed in transfected cells; host or cells: CHO cell line stably expressing GPR40 and aequorin
Method: as §4
(A) Structure of selected GPR40 agonists. (B) GPR40 agonists were tested in parallel in vitro in an inositol phosphate accumulation assay in A9 cells stably expressing GPR40. (TIF) Click here for additional data file.

[6] = molecular target: PPAR gamma (Homo sapiens, UniProt P37231); assay: PPAR-gamma luciferase assay; format: cell-based; conditions: concentrations up to 10 µM
Text: as §1

[7] = test system: HF/STZ mice; assay: Single oral dose without glucose challenge in HF/STZ mice: GLP-1, insulin, glucose, GIP; format: in vivo, mouse; conditions: HF/STZ mice, single oral dose
Method: The increase in insulin secretion by GPR40 agonists is due to direct stimulation of GPR40 receptors on pancreatic β-cells, but may also be derived from stimulation of the gut peptides GLP-1 and GIP, which subsequently act on the GLP-1 and GIP G protein-coupled receptors found on pancreatic β-cells. […] No glucose challenge was performed in order to isolate the effects of the compounds alone.
as §2

[8] = molecular target: T3, GPR41 (FFAR3) (Homo sapiens, UniProt O14843); assay: GPR41 aequorin assay; format: cell-based; conditions: up to 10 µM
T3 construct: expressed in transfected cells
Text: as §1

[9] = test system: C57/Bl6 mice; assay: IPGTT in C57BL/6j mice with or without GLP-1R antagonist Ex(9-39)NH2; format: in vivo, mouse
Method: An intraperitoneal rather than oral glucose challenge was performed in order to bypass the incretin effect of an oral glucose administration.
IPGTT experiments with Ex(9–39)NH2 (Bachem) were performed with male C57BL/6j (n = 6–7/group) at 26-weeks of age. Ex(9–39)NH2 was formulated in PBS containing 0.1%BSA and dosed ip at 300 µg/kg.
as §3

[10] = molecular target: T2, GPR40; assay: Aequorin Ca2+ flux assay in CHO cell line stably expressing GPR40; format: cell-based; conditions: CHO-GPR40 stable cell line
Method: Since GPR40 agonists with greater intrinsic activity may have improved anti-diabetic properties, we focused our efforts to discover potent synthetic full agonists.
as §4

T2 sequence (O14842 whole entry): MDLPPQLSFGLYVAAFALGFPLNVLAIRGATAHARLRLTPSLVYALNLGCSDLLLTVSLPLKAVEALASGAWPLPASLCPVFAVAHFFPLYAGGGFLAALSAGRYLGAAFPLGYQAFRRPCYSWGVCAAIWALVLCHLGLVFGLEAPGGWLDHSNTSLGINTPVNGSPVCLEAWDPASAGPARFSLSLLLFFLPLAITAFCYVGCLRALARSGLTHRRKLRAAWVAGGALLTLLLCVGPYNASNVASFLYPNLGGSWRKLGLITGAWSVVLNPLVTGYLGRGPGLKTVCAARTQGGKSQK
T1 sequence (Q5NUL3 whole entry, species assumed): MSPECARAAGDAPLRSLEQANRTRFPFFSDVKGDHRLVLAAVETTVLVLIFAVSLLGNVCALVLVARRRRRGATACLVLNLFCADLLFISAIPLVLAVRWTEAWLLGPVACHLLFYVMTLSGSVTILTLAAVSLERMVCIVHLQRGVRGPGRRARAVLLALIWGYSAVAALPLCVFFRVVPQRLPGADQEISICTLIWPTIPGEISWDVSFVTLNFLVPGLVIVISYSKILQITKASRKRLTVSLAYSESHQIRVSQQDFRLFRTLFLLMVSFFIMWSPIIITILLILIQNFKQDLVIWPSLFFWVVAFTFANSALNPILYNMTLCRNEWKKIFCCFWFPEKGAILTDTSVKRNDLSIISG
mouse GPR40, sequence (Q76JU9 whole entry): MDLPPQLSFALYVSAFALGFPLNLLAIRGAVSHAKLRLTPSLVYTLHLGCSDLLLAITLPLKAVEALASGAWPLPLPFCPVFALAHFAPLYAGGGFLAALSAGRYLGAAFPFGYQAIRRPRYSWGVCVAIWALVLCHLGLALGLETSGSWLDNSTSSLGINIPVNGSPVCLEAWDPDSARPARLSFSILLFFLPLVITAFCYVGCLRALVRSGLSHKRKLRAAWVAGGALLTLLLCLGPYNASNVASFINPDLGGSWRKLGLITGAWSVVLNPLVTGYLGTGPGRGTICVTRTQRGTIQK
T3 sequence (O14843 whole entry, species assumed): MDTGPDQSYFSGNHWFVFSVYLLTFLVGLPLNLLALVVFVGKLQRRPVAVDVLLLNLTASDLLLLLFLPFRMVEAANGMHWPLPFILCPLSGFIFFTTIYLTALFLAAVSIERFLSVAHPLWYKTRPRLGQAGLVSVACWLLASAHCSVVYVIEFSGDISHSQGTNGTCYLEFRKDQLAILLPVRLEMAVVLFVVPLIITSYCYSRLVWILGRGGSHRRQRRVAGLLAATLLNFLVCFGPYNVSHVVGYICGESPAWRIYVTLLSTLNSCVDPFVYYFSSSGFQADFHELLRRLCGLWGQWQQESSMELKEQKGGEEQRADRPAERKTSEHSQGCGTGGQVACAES
PPAR gamma, sequence (P37231 whole entry): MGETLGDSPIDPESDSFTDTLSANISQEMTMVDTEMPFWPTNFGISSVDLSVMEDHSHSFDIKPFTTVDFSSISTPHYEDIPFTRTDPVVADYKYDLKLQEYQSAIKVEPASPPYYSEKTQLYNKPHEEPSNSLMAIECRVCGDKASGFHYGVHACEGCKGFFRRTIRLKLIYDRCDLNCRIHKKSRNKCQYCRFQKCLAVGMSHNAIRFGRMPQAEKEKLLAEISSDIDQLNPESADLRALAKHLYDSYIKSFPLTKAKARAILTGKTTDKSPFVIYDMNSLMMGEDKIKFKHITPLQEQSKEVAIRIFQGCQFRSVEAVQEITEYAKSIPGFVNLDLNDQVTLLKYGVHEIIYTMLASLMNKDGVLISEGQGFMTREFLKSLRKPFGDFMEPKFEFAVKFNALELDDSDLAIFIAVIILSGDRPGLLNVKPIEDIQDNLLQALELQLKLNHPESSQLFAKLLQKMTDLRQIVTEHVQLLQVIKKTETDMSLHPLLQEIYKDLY

COc1ccc(F)c(-c2ccc(COc3cccc([C@@H](CC(=O)O)C4CC4)c3)cc2C2=CCCC2(C)C)c1 [AM-1638]
concentration at 1 h [1]: 363 ± 48 nM | EC50 [2]: ~5000 nM | improvement in pre- and post-challenge glucose levels ([3]; OGTT, single oral dose): evident in wild type | plasma GLP-1 levels ([3]; single dose 100 mg/kg): elicited an increase | EC50 [4]: 12.9 ± 1.4 nM | intrinsic activity, fold greater than AMG 837 [5]: ~2 fold | EC50 ([5]; 1-hour accumulation, read-out: Half-maximal potency): 13.1 ± 1.1 nM | activation of PPAR gamma [6]: did not activate | GIP secretion [7]: stimulated secretion of GIP | blood glucose levels ([7]; no glucose challenge): stabilized blood glucose levels | plasma GLP-1 and insulin levels ([7]; no glucose challenge, compared with AMG 837): markedly greater increase | activation of GPR41 (FFAR3) [8]: did not activate | Glucose AUC reduction ([9]; AM-1638 60 mg/kg alone): ~53% | Glucose AUC reduction ([9]; AM-1638 60 mg/kg in the presence of exendin(9-39)NH2 300 µg/kg ip): ~25% | EC50 [10]: 160 ± 10 nM | Emax ([10]; compared to natural free fatty acid ligands, read-out: Emax (efficacy)): 100%
